Patent publication US20190367516A1 (Bayer Pharma Aktiengesellschaft, priority 2015, published 2019)

Target: T1, human M2 receptor (Homo sapiens, UniProt P08172)
T1 sequence (P08172 1-466): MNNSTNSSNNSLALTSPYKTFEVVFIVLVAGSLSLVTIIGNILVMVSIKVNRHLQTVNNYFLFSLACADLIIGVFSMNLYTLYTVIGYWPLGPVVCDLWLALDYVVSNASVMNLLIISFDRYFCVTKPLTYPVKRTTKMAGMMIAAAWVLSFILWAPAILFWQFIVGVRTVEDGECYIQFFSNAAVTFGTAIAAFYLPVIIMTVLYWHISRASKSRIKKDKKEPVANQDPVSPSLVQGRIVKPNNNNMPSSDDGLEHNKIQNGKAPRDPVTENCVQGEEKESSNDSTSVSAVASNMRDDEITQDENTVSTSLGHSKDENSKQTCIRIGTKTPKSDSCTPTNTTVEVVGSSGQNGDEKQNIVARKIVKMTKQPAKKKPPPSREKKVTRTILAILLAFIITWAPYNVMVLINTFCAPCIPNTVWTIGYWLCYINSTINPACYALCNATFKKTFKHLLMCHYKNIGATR
Details: M2-GIRK1/4 reporter cells; for EC50: Receptor activity EC50, allosteric potency at EC20 acetylcholine, in some cases mean of two or more determinations; for Emax: read-out: Efficiency, boosting of the acetylcholine effect at EC20 acetylcholine concentration

| SMILES | EC50 [µM] | Emax [%] |
| --- | --- | --- |
| O=C(NC(CC(F)(F)F)C(F)(F)F)c1cn(-c2c(F)cc(F)cc2F)c2nc(N3C[C@@H](O)[C@H](O)C3)ccc2c1=O (stereo partly drawn) [Example 545, 7-[(3R,4R)-3,4-Dihydroxypyrrolidin-1-yl]-N-[1,1,1,4,4,4-hexafluorobutan-2-yl]-4-oxo-1-(2,4,6-trifluorophenyl)-1,4-dihydro-1,8-naphthyridine-3-carboxamide] | 0.008 | 99 |
| O=C(N[C@@H](C1CC1)C(F)(F)F)c1cn(-c2c(F)cc(F)cc2Cl)c2nc(N3C[C@@H](O)[C@H](O)C3)ccc2c1=O [Example 546, 1-(2-Chloro-4,6-difluorophenyl)-N-[(1 S)-1-cyclopropyl-2,2,2-trifluoroethyl]-7-[(3R,4R)-3,4-dihydroxypyrrolidin-1-yl]-4-oxo-1,4-dihydro-1,8-naphthyridine-3-carboxamide] | 0.01 | 100 |
| O=C(NC(C(F)(F)F)C(F)(F)F)c1cn(-c2c(F)cc(F)cc2F)c2nc(N3C[C@@H](O)CC3=O)ccc2c1=O [Example 555, N-(1,1,1,3,3,3-Hexafluoropropan-2-yl)-7-[(4S)-4-hydroxy-2-oxopyrrolidin-1-yl]-4-oxo-1-(2,4,6-trifluorophenyl)-1,4-dihydro-1,8-naphthyridine-3-carboxamide] | 0.01 | 100 |
| CC(C)C[C@H](NC(=O)c1cn(-c2c(F)cc(F)cc2F)c2nc(N3C[C@@H](O)[C@H](O)C3)ccc2c1=O)C(F)(F)F [Example 559, 7-[(3R,4R)-3,4-Dihydroxypyrrolidin-1-yl]-4-oxo-N-[(2S)-1,1,1-trifluoro-4-methylpentan-2-yl]-1-(2,4,6-trifluorophenyl)-1,4-dihydro-1,8-naphthyridine-3-carboxamide] | 0.01 | 99 |
| CC[C@H](NC(=O)c1cn(-c2c(F)cc(F)cc2Cl)c2nc(N3C[C@@H](O)[C@H](O)C3)ccc2c1=O)C(F)(F)F [Example 566, 1-(2-Chloro-4,6-difluorophenyl)-7-[(3R,4R)-3,4-dihydroxypyrrolidin-1-yl]-4-oxo-N-[(2S)-1,1,1-trifluorobutan-2-yl]-1,4-dihydro-1,8-naphthyridine-3-carboxamide] | 0.016 | 96.5 |
| O=C(NC(C(F)(F)F)C(F)(F)F)c1cn(-c2c(F)cc(F)cc2F)c2nc(N3C[C@@H](O)[C@H](O)C3)ccc2c1=O [Example 572, 7-[(3R,4R)-3,4-Dihydroxypyrrolidin-1-yl]-N-(1,1,1,3,3,3-hexafluoropropan-2-yl)-4-oxo-1-(2,4,6-trifluorophenyl)-1,4-dihydro-1,8-naphthyridine-3-carboxamide] | 0.012 | 100 |
| COC(=O)N1CCN(c2ccc3c(=O)c(C(=O)NC(C)(C)CC(F)(F)F)cn(-c4c(F)cc(F)cc4F)c3n2)CC1 [Example 575, Methyl 4-{5-oxo-6-[(4,4,4-trifluoro-2-methylbutan-2-yl)carbamoyl]-8-(2,4,6-trifluorophenyl)-5,8-dihydro-1,8-naphthyridin-2-yl}piperazine-1-carboxylate] | 0.013 | 96 |
| CC1C(=O)N(c2ccc3c(=O)c(C(=O)N[C@@H](C4CC4)C(F)(F)F)cn(-c4c(F)cc(F)cc4F)c3n2)CC1O (some centres unmarked) [Example 579, N-[(1 S)-1-Cyclopropyl-2,2,2-trifluoroethyl]-7-[4-hydroxy-3-methyl-2-oxopyrrolidin-1-yl]-4-oxo-1-(2,4,6-trifluorophenyl)-1,4-dihydro-1,8-naphthyridine-3-carboxamide] | 0.014 | 97.5 |
| CC(C)C[C@@H](NC(=O)c1cn(-c2c(F)cc(F)cc2F)c2nc(N3CCNC3=O)ccc2c1=O)C(F)(F)F [Example 580, 4-Oxo-7-(2-oxoimidazolidin-1-yl)-N-[(2R)-1,1,1-trifluoro-4-methylpentan-2-yl)-1-(2,4,6-trifluorophenyl)-1,4-dihydro-1,8-naphthyridine-3-carboxamide] | 0.014 | 100 |
| CC(NC(=O)c1cn(-c2c(F)cc(F)cc2F)c2nc(N3CCNC3=O)ccc2c1=O)(C(F)(F)F)C(F)(F)F [Example 581, N-(1,1,1,3,3,3-Hexafluoro-2-methylpropan-2-yl)-4-oxo-7-(2-oxoimidazolidin-1-yl)-1-(2,4,6-trifluorophenyl)-1,4-dihydro-1,8-naphthyridine-3-carboxamide] | 0.014 | 98 |
| O=C(Nc1c(Cl)cccc1Cl)c1cn(-c2c(F)cc(F)cc2F)c2nc(N3C[C@@H](O)[C@H](O)C3)ccc2c1=O [Example 585, N-(2,6-Dichlorophenyl)-7-[(3R,4R)-3,4-dihydroxypyrrolidin-1-yl]-4-oxo-1-(2,4,6-trifluorophenyl)-1,4-dihydro-1,8-naphthyridine-3-carboxamide] | 0.014 | 95.5 |
| CC(NC(=O)c1cn(-c2c(F)cc(F)cc2F)c2nc(N3C[C@@H](O)[C@H](O)C3)ccc2c1=O)(C(F)(F)F)C(F)(F)F [Example 591, 7-[(3R,4R)-3,4-Dihydroxypyrrolidin-1-yl]-N-(1,1,3,3,3-hexafluoro-2-methylpropan-2-yl)-4-oxo-1-(2,4,6-trifluorophenyl)-1,4-dihydro-1,8-naphthyridine-3-carboxamide] | 0.016 | 100 |
| O=C(Nc1c(Cl)cccc1Cl)c1cn(-c2c(F)cc(F)cc2F)c2nc(N3C[C@@H](O)CC3=O)ccc2c1=O [Example 592, N-(2,6-Dichlorophenyl)-7-[(4S)-4-hydroxy-2-oxopyrrolidin-1-yl]-4-oxo-1-(2,4,6-trifluorophenyl)-1,4-dihydro-1,8-naphthyridine-3-carboxamide] | 0.016 | 99.5 |
| COC(=O)N1CCN(c2ccc3c(=O)c(C(=O)N[C@H](C4CC4)C(F)(F)F)cn(-c4c(F)cc(F)cc4F)c3n2)CC1 [Example 594, Methyl 4-[6-{[(1R)-1-cyclopropyl-2,2,2-trifluoroethyl]carbamoyl}-5-oxo-8-(2,4,6-trifluorophenyl)-5,8-dihydro-1,8-naphthyridin-2-yl]piperazine-1-carboxylate] | 0.018 | 100 |
| COC1(C)CN(c2ccc3c(=O)c(C(=O)N[C@@H](C(C)(C)C)C(F)(F)F)cn(-c4c(F)cc(F)cc4F)c3n2)C1 [Example 598, 7-(3-Methoxy-3-methylazetidin-1-yl)-4-oxo-N-[(2S)-1,1,1-trifluoro-3,3-dimethylbutan-2-yl]-1-(2,4,6-trifluorophenyl)-1,4-dihydro-1,8-naphthyridine-3-carboxamide] | 0.021 | 100 |
| O=C(NC(C(F)(F)F)C(F)(F)F)c1cn(-c2c(F)cc(F)cc2F)c2nc(N3CCNC3=O)ccc2c1=O [Example 599, N-(1,1,1,3,3,3-Hexafluoropropan-2-yl)-4-oxo-7-(2-oxoimidazolidin-1-yl)-1-(2,4,6-trifluorophenyl)-1,4-dihydro-1,8-naphthyridine-3-carboxamide] | 0.023 | 90 |
| COC(=O)N1CCN(c2ccc3c(=O)c(C(=O)N[C@@H](C4CC4)C(F)(F)F)cn(-c4c(F)cc(F)cc4F)c3n2)CC1 [Example 603, Methyl 4-[6-{[(1 S)-1-cyclopropyl-2,2,2-trifluoroethyl]carbamoyl}-5-oxo-8-(2,4,6-trifluorophenyl)-5,8-dihydro-1,8-naphthyridin-2-yl]piperazine-1-carboxylate] | 0.025 | 89.5 |
| O=C(N[C@@H](C1CC1)C(F)(F)F)c1cn(-c2c(F)cc(F)cc2F)c2nc(N3CCCNC3=O)ccc2c1=O [Example 604, N-[(1S)-1-Cyclopropyl-2,2,2-trifluoroethyl]-4-oxo-7-(2-oxotetrahydropyrimidin-1(2H)-yl)-1-(2,4,6-trifluorophenyl)-1,4-dihydro-1,8-naphthyridine-3-carboxamide] | 0.025 | 93.5 |
| COC1(C)CN(c2ccc3c(=O)c(C(=O)N[C@H](C4CC4)C(F)(F)F)cn(-c4c(F)cc(F)cc4F)c3n2)C1 [Example 605, N-[(1R)-1-Cyclopropyl-2,2,2-trifluoroethyl]-7-(3-methoxy-3-methylazetidin-1-yl)-4-oxo-1-(2,4,6-trifluorophenyl)-1,4-dihydro-1,8-naphthyridine-3-carboxamide] | 0.025 | 98 |
| CC(C)(CC(F)(F)F)NC(=O)c1cn(-c2c(F)cc(F)cc2F)c2nc(N3C[C@@H](O)[C@@H](O)C3)ccc2c1=O [Example 612, 7-[(3R,4S)-3,4-Dihydroxypyrrolidin-1-yl]-4-oxo-N-(4,4,4-trifluoro-2-methylbutan-2-yl)-1-(2,4,6-trifluorophenyl)-1,4-dihydro-1,8-naphthyridine-3-carboxamide] | 0.029 | 100 |
| O=C(Nc1c(Cl)cccc1Cl)c1cn(-c2c(F)cc(F)cc2F)c2nc(N3CCNC3=O)ccc2c1=O [Example 613, N-(2,6-Dichlorophenyl)-4-oxo-7-(2-oxoimidazolidin-1-yl)-1-(2,4,6-trifluorophenyl)-1,4-dihydro-1,8-naphthyridine-3-carboxamide] | 0.033 | 95.5 |
| CC(C)(NC(=O)c1cn(-c2c(F)cc(F)cc2F)c2nc(N3CCNC3=O)ccc2c1=O)C(F)F [Example 614, N-(1,1-Difluoro-2-methylpropan-2-yl)-4-oxo-7-(2-oxoimidazolidin-1-yl)-1-(2,4,6-trifluorophenyl)-1,4-dihydro-1,8-naphthyridine-3-carboxamide] | 0.036 | 94.5 |
